These results are taken from a melting point compilation (Tetko et al.; mined from patent text by program, amines drawn as free bases though some values may be those of a salt).

Consider `COc1ccc(C=CC(=O)NCCc2ccc(-c3ccccc3)c(S(N)(=O)=O)c2)c(OC)c1`, for which the melting point was 85 °C.
As for `C=CCOC(=O)C1=C2c3ccccc3CC[C@@H]2[C@@H]2[C@@H]([C@@H](C)O)C(=O)N12`, the melting point is 133 to 134 °C.
`COc1cc(OC)c(-c2cccs2)cc1/C=C/C(=O)c1ccc(S(=O)(=O)Nc2ccccn2)cc1` had a melting point of 141 to 143 °C.
For `COc1ccc(C(=CC(=O)N2CCOCC2)c2ccc(CC(=O)O)cc2)cc1OC` the value was 192 to 194 °C.
With `COCCN1CC(C(=O)O)N(S(=O)(=O)c2ccc(OC)cc2)Cc2ccccc21` (centres undefined) the figure was 164 to 165 °C; with `Cc1nn(C)c2cnc(-c3ccc(C(F)(F)F)cc3)nc12`, 286 to 289 °C; with `Cc1c(Cc2ccc(F)cc2)c(=O)oc2cc(OC(=O)N(C)c3ccccc3)ccc12`, 185 to 186 °C.
For `COc1ccc(C(=O)Cc2c(Cl)cncc2Cl)c2c(CC(=O)OCc3ccccc3[N+](=O)[O-])coc12` the value was 200 to 201 °C; for `CCC(=O)N1CCC(NC(=O)Nc2ccc(Cl)cc2)CC1`, 225 to 226 °C; for `O=C(O)c1ccc(CNC=C2C(=O)c3ccccc3OC2c2ccccc2)cc1` (centres undefined), 195 to 200 °C.
For the molecule `Cc1cc(CCCCCOc2ccc(-c3nnco3)cc2)on1`, the melting point fell in the range of 84 to 86 °C.
For `Cc1[nH]c2cc(OCc3ccccc3)ccc2c1C(=O)C1CSC(c2cccnc2)N1` (centres undefined) the value was 89 to 93 °C.
With `CC(C)Sc1cc2c(cc1Cl)N=C(c1ccncc1)NS2(=O)=O` the figure was 254 to 256 °C.
Molecule `CC(N)C1CCC(C(=O)Nc2ccncc2)CC1` (centres undefined) gave a melting point of 286 to 287 °C.
In turn, `COC(=O)C1=C(C)NC(CCn2ccnc2)=C(C(=O)OC)C1c1cccc(Cl)c1Cl` (centres undefined) gave a melting point of 180 to 182 °C.
With `CC1=NC(=NO)SC1(C)C` the figure was 151 to 153 °C; with `C[C@H](C(=O)N[C@@H](COC(=O)C(C)(C)C)Cc1ccccc1)c1ccc(NS(C)(=O)=O)c(F)c1`, 117 to 119 °C; with `CCOC(=O)COc1cc(Cl)c2c(=O)c(-c3ccccc3C)coc2c1`, 122 to 123 °C.
For `COc1cc(COc2nn(-c3ccccc3)cc2/C=C/c2coc(C(C)C)n2)ccc1OCc1nc(-c2ccc(CC(=O)O)cc2)oc1C` the value was 116 to 118 °C; for `COc1ccc(-c2cnn3cc(C(=O)O)cnc23)cc1OC`, 229 to 231 °C; for `Nc1sc2c(c1C(=O)c1ccc(Br)c3ccccc13)CCC2`, 210 to 212 °C.
For `CC(C)c1ccc(CCCC(=O)O)cc1` the value was 50 to 51 °C; for `Cc1c(Nc2c(C#N)cncc2-c2cc3cc(C=O)ccc3o2)ccc2[nH]ccc12`, 235 to 237 °C.
The molecule `O=C(O)c1ccc(CCCC2SCC(=O)N2CCC2(O)CCCCC2)cc1Cl` (centres undefined) registered a melting point of 104 to 108 °C.
With `Cc1cccc2c(=O)[nH]c(CCCN(C)C)cc12` the figure was 105 to 106 °C; with `CCOC(=O)CCc1cc(O)nn1C(C)C`, 119 to 120 °C; with `O=C(Oc1ccccc1)C(=O)Oc1ccc2c(c1)C(c1ccccc1)C(=O)O2` (centres undefined), 134 °C.
With `CCN(CC)CCCN1CCN(CCN2CCCCC2)C1=C(C#N)C#N` the figure was 58 to 61 °C; with `Cc1cc(C)cc(Sc2c(C(C)C)c(=O)[nH]c(=O)n2CCC2CC=CC2)c1`, 128 to 129 °C; with `OCCn1ccc(NC(=S)NCC(F)(F)F)n1`, 145 to 146 °C.
With `Cc1cc(-c2cn(-c3cccc(OCCn4ccnc4)c3)c3ncnc(N)c23)cc(C)c1O` the figure was 100 °C; with `COC(=O)CC[C@@H](CF)NC(=O)OCc1ccccc1`, 46 to 48 °C; with `Cc1nccn1-c1cccc(C2=CC(=O)OC(C)(C)O2)c1`, 122 °C.
Molecule `CCCCN(CCCC)CCCOc1ccc(S(=O)(=O)c2ccccc2C(C)C)cc1` showed a melting point of 88 °C.
Consider `CCN(CCCCC12CC3CC(CC(C3)C1)C2)C(=O)NCCCc1ccncc1`, for which the melting point is 92.7 to 93.7 °C.
For `COc1c(Nc2ncc(Cl)c(Nc3ccccc3S(=O)(=O)N(C)C)n2)ccc2c1CCC(NCC(F)F)CC2` (centres undefined) the value was 118 °C.
With `COc1cc(OC)cc(\C(C)=C/C=C/C(C)=C/C(=O)Nc2ccc(O)cc2)c1` the figure was 162 to 163 °C; with `Nc1cc(=O)[nH]c(=O)n1C1CCc2ccccc21` (centres undefined), more than 295 °C.
With `O=C(/C=C/C=C(c1ccc(Cl)cc1)c1ccc(Cl)cc1)NCCCCc1cccnc1` the figure was 146 to 147 °C.
The molecule `Nc1cccc2cnc(Cl)cc12` yielded a melting point of 176 to 177 °C.
With `COC(=O)CC(=O)c1ccc2c(c1)CCC(=O)N2C`, the melting point fell in the range of 175 to 176 °C.
For `Cn1c(C(F)(F)F)cc(=O)n(-c2cc(OC(=O)Nc3cccc(C(F)(F)F)c3)c(Cl)cc2F)c1=O` the value was 153 to 155 °C; for `COc1ccc(C(=O)NCCCCn2cnc3c(N)nc4ccccc4c32)c(OC)n1`, 175 to 177 °C.
For `CCC(C(=O)O)N(C(=O)c1cn(-c2ccc(OC)cc2)nc1C)c1ccc(OCC(C)(C)C)c(C#N)c1` (centres undefined) the value was 113 to 114 °C; for `CCc1nc2ccc3c(c2o1)C(CCNC(C)=O)CC3` (centres undefined), 76 to 78 °C; for `CCCNC(=O)C1C=C2CC=C(OC)C=C2N1CCNC(C)=O` (centres undefined), 127 to 128 °C.
With `COc1ccc(-c2nn(CC(C)=O)c(=O)cc2-c2ccncc2)cc1` the figure was 68.3 to 70.6 °C.
For the molecule `CCOC(=O)c1nc2sc([N+](=O)[O-])c(C)c2c(=O)[nH]1`, the melting point lay within 229 to 230 °C.
With `CCC(Br)=C1NC(=O)N(C(C(=O)Nc2cc(NC(=O)C(CC)Oc3ccc(C(C)(C)CC)cc3C(C)(C)CC)ccc2Cl)C(=O)C(C)(C)C)C1=O` (centres undefined) the figure was 129 to 131 °C; with `OCc1cc2c3ccccc3ncn2n1`, 132 to 133 °C.
With `O=C(O)COc1ccc(SCc2ccc(OCc3ccc(C(F)(F)F)cc3)cc2)c2c1CCCO2` the figure was 143 to 144 °C.
For `Cc1cn(C(C)(C(=O)N(C)C)c2ccccc2)nc1-c1ccccc1Cl` (centres undefined) the value was 96 to 99 °C; for `CNc1ccc(N=O)cc1`, 115 to 117 °C; for `CC1=NN(C)C(=O)C1C(=O)Nc1ccccc1` (centres undefined), 231 to 233 °C.
Molecule `O=C1c2ccccc2C(=O)N1CC(Cl)(CCl)c1ccccc1` (centres undefined) registered a melting point of 114 to 115 °C.
For `COC(=O)c1nccc2c1[nH]c1ccc(Oc3ccc([N+](=O)[O-])cn3)cc12` the value was 150 to 155 °C; for `CCOC(=O)ON(C(=O)NC)c1ccc(Cl)c(Cl)c1`, 97 to 98 °C.
For `NC(=O)N(O)Cc1sccc1Sc1ccc(Cl)cc1` the value was 111 to 113 °C; for `CNC(=O)c1c(NC(=O)CBr)c(OC)c(C(=O)NC)c(NC(=O)CBr)c1OC`, 308 to 310 °C; for `CC(=O)OCC1OC(c2ccc(F)c(Cc3ccc(Cl)s3)c2)C(OC(C)=O)C(OC(C)=O)C1OC(C)=O` (centres undefined), 130 to 131 °C.
For `CSc1ccc(OCCO)cc1` the value was 55 to 56.5 °C; for `CCOC(=O)C1=C(C)NC(N)(c2nc(-c3cccc(C(F)(F)F)c3)cs2)N=C1` (centres undefined), 227 to 229 °C.
Regarding `CCOC(=O)C1C=Nc2c(ccc(F)c2F)C1=O` (centres undefined), the melting point amounted to 270 °C.
For `CCOc1ccc2c(c1)n(C1CCCCC1)c(=O)n2S(=O)(=O)c1ccc(N(C)C)cc1OC` the value was 220 °C.
`CCOC(=O)c1cnc2c(OC)cccc2c1Nc1ccccc1`: the melting point lay in the range of 120 to 121 °C.
For `COC(=S)c1sc(C)c(N)c1N` the value was 95 to 97 °C; for `Cc1ccc(C#N)cc1C#N`, 142 to 143 °C.
For `CCOC(=O)C1=CC(C2CC2)c2nc3cc(F)c(F)cc3nc2C1=O` (centres undefined) the value was 230 °C.
With `CCOC(=S)C(CC(=O)c1ccc(Oc2ccccc2)cc1)C(=O)CC` (centres undefined) the figure was 55 to 57 °C; with `O=C(Nc1cccnc1)NC(NC(=O)c1ccc(Cl)cc1)C(Cl)(Cl)Cl` (centres undefined), 166 to 168 °C.
`CCCCCCCCCCc1ccc(C(=O)NOCc2ccccc2)cc1` registered a melting point of 82 to 83 °C.
With `CCOC(=O)c1ccc(C=Cc2ccc(OC)cc2)cc1` the figure was 191 to 192 °C; with `Cc1cc(-c2ccc(C#N)cc2)sc1C(=O)N[C@H](C)[C@](O)(Cn1cncn1)c1ccc(F)cc1F`, 176 to 177 °C.
With `COC(=O)c1ccc(-c2nc3c(OC(C)=O)cccc3s2)cc1` the figure was 144 to 146 °C.
`CCOC(=O)N1CCc2[nH]cc3c(=O)n(-c4ccccc4)nc-3c2C1` came in with a melting point of 236 to 238 °C.
`CCOC(=O)c1cc(=O)c2[nH]ncc2[nH]1` came in with a melting point of 287 to 292 °C.
With `O=C(O)C(=O)Nc1cccc(NC(=O)C(=O)O)n1` the figure was more than 310 °C; with `CC(C)(c1ccc(Oc2cccc(N3C(=O)C=CC3=O)c2)cc1)c1ccc(C(C)(C)c2ccc(Oc3cccc(N4C(=O)C=CC4=O)c3)cc2)cc1`, 192 to 193 °C; with `COc1ccc(C2(C#N)C3CC4CC(C3)CC2C4)cc1` (centres undefined), 165 to 166 °C.
Consider `CCC12CCC3C4CCC(=O)C=C4CCC3C1CCC2=O` (centres undefined), for which the melting point lay in the range of 156 to 158 °C.
With `COc1ccc(NN=C2CCC3(CC2)OCCO3)cc1` the figure was 168 to 169 °C; with `COc1ccc(Cc2ccc(NC3=NCCN3)cc2OC)cc1`, 127 to 128 °C.
With `CC(C)c1ccc2c(c1)OC(C(F)(F)F)C(C(=O)O)=C2` (centres undefined) the figure was 158 to 160 °C.
For `C[C@H](COc1ccc(F)cc1)Nc1nc(Cl)nc2c1ncn2[C@@H]1O[C@H](CO)[C@@H](O)[C@H]1O` the value was 172 to 173 °C; for `CCOC(=O)C(NC(C)=O)=C(c1ccc(F)cc1)c1ccc(F)cc1`, 200 to 201 °C.
Consider `CCOc1nn(Cc2ccc(OCc3csc(-c4ccccc4)n3)cc2)cc1CCC(=O)O`, for which the melting point is 114 to 115 °C.
With `CSc1sc(C(=O)N2CCN(C)CC2)c2c1C(=O)CC(C)(C)C2` the figure was 123 to 125 °C; with `Oc1cc(O)c2cc(-c3ccc(F)cc3)oc2c1`, 189 to 190 °C; with `CC(CF)(CF)C(O)C(Oc1ccc(Cl)cc1)n1ccnc1` (centres undefined), 137 °C.
